From US8551996B2, “Compounds, compositions, methods of synthesis, and methods of treatment” (Emory University, priority 2009, dated 2013) come the findings set out here.

This experiment deals with T1, CRF-1 receptor (Homo sapiens, UniProt P34998).
T1 construct: expressed in transfected cells; host or cells: HEK293T/17
T1 sequence (P34998 24-415): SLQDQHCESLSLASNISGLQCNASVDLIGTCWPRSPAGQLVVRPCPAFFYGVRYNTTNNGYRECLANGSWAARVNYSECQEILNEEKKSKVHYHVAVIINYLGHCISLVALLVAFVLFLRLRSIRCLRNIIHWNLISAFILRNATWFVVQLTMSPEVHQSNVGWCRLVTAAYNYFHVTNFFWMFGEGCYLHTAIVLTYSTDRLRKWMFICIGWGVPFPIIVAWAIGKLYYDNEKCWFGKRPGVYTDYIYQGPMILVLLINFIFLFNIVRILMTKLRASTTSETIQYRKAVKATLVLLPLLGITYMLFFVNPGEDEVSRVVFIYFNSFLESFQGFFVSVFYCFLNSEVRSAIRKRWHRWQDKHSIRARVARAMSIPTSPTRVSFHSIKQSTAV
The experiment in a line: CRF-1 receptor competitive binding vs. [125I]sauvagine. The conditions noted are these: for Ki: transfected HEK293T/17 cells expressing the CRF-1 receptor, radioligand [125I]sauvagine, read-out: CRF-1 Receptor Binding Affinities (vs. [125I] Sauvagine) Ki; for affinity for the CRF-1 receptor (in words): vs. [125I]sauvagine, only slightly reduced from that found for R121919. The text has this: Pyrido[2,3-b]pyrazin-2-ones of type VI (Table 1) were synthesized according to the procedure reported by Dzierba, et al., (J. Med. Chem. 2004, 47, 5783-5790) as shown in Scheme 21.

The structures appear in SMILES notation.

By Ki is commonly meant the dissociation constant of the complex between target and ligand, obtained from inhibition or displacement. Regarding `CCCCN(CC)c1cc(C)nc2c1NC(=O)CN2c1ccc(C)cc1Br` [Compound 185, 4-(2-Bromo-4-methylphenyl)-8-(butylethylamino)-6-methyl-3,4-dihydra-1H-pyrido[2,3-b]pyrazin-2-one], the Ki is 6.2 ± 1.4 nM and the “affinity for the CRF-1 receptor (in words)” value (from here on “affinity”) is listed as “high affinity”.

Turning to `CCCCN(CC)c1cc(C)nc2c1NC(=O)CN2c1ccc(Br)cc1C` [Compound 188, 8-(Butylethylamino)-4-(2-methyl-4-bromophenyl)-6-methyl-3,4-dihydro-1H-pyrido[2,3-b]pyrazin-2-one], the Ki worked out at 5.7 ± 0.3 nM and the “affinity” value is listed as “high affinity”.

As to `CCCCN(CC)c1cc(C)nc2c1NC(=O)CN2c1ccc(C)cc1C` [Compound 191, 8-(Butylethylamino)-4-(2,4-dimethylphenyl)-6-methyl-3,4-dihydro-1H-pyrido[2,3-b]pyrazin-2-one], the inhibition constant (Ki) was 9.1 nM and the “affinity” value is reported as “high affinity”.
